Source: patent EP4711377A1, “STEROID COMPOUND, PREPARATION METHOD THEREFOR, AND USE THEREOF” (Shujing Biopharma Co., Ltd, priority 2023, dated 2024)

Columns and labels:
[1] = tested on: mice with PTZ-induced convulsions; assay: in vivo efficacy experiment in PTZ-induced epilepsy mouse model; parameters: species or system C57 mice; settings: for Survival rate: 60 min before PTZ 120 mg/kg s.c., 30 min observation; for Number of clonic seizures / Number of tonic seizures / Clonic seizure latency period / Tonic seizure latency period: Mean ± SEM; for Clonic seizure latency period / Tonic seizure latency period: no seizure in 30 min recorded as 1800 s; for protective effects against acute epileptic seizures: conclusion in words
Description: Male C57 mice, purchased from SPF (Suzhou) Biotechnology Co., Ltd.
PTZ: a 120 mg/kg PTZ solution (administration volume: 10 mL/kg) was prepared with normal saline as the solvent.
Test compounds: solutions of the test compounds at 3/1/0.3 mg/kg (administration volume: 10 mL/kg) were prepared with Vehicle in section 1.4 as the solvent.
One hour before the test, the experimental animals were transferred into an operation room for acclimation.
The mice were randomly grouped, marked, and weighed, with 10 mice in each group. At 60 min before PTZ administration, the test compounds and Vehicle were separately orally administered.
The PTZ solution was administered subcutaneously before experimental observation, and this time point was recorded as the observation starting point.
Immediately after PTZ administration, the animals were placed in observation boxes and observed for 30 min. The following observations of the animals were recorded:
Clonic seizure: the animal has a generalized myoclonus that lasts for more than 3 s and is accompanied by falling.
Tonic seizure: the limbs are straightened at a 90° angle to the torso.
All metrology data were expressed as mean ± standard error of mean (Mean ± SEM), and the Prism 8.0 statistical software was used for data testing and analysis.

[2] = in vivo pharmacokinetic experiment in mice; parameters: species or system ICR mice; settings: mouse, oral intragastric administration 10 mg/kg, single, plasma
Description: Male ICR mice were subjected to oral intragastric administration. The plasma concentrations of the compounds of the present disclosure in the mice were measured, the PK parameters were calculated, and pharmacokinetic evaluation was performed on the compounds of the present disclosure.
Drug preparation: according to the weight of the weighed drug, the preparation volume was calculated; 5% of DMSO and 5% of HS-15 were added sequentially; after the drug was fully dissolved, 90% of a 20% aqueous β-cyclodextrin solution was added, and the mixture was well mixed for later use.
Route of administration: oral intragastric administration, at a dose of 10 mg/kg.
Administration frequency and duration: single administration.
ICR mice were stratified according to body weight and then randomly grouped, with 9 mice per group. The mice were fasted overnight prior to the experiment. The mice were subjected to oral intragastric administration. At 0 h, 0.167 h, 0.333 h, 0.5 h, 1 h, 2 h, 4 h, 6 h, 8 h, 12 h, and 24 h, 50 µL of blood was collected from the fundus vein of each mouse into a sample tube containing heparin sodium as an anticoagulant, and then the tube was placed in wet ice and centrifuged at 4000 r·min^-1 for 10 min. The plasma was separated, and cryopreserved in a refrigerator at -80 °C for testing.
The concentrations of the plasma samples were measured by high-performance liquid chromatography-tandem mass spectrometry (LC-MS/MS). The retention times of the compounds and internal standard, chromatographic acquisitions, and integrals of chromatograms were processed using the software Analyst (AB SCIEX), and statistical analysis of the data was performed using the software Microsoft office. The plasma concentrations were processed using a non-compartmental model of the pharmacokinetic software WinNonlin™ Version 6.3 (Pharsight, Mountain View, CA), and the pharmacokinetic parameters were calculated using a linear log-trapezoidal method. Table 4. Results of pharmacokinetic experiment in mice

[3] = molecular target: GABAa receptor (α1β2γ2) (Homo sapiens, UniProt P14867+P47870); assay: in vitro GABAa receptor (α1β2γ2) cellular activity assay, manual whole-cell patch clamp, enhancement of currents induced by 1 µM GABA; type: cell-based; settings: CHO cells; for activation at 0.1 µM: read-out: Agonist ratio
Description: The cells used in this experiment were derived from a CHO cell line that stably expressed normal GABAa receptor functions after transfection with human GABAa receptor α1, β2, and γ2 subunit cDNAs. The cell line was constructed by B'sys GmbH. The cells were cultured in a medium (purchased from Invitrogen) containing the following components: DMEM culture medium; 10% (v/v) inactivated fetal bovine serum; 5 µg/mL Puromycin; 250 µg/mL Hygromycin B; and 100 µg/mL Zeocin. The cells were grown in culture dishes containing the above medium and cultured in an incubator at 37 °C with 5% CO2. 12 h to 24 h before the electrophysiological experiment, the cells were transferred onto circular glass slides placed in culture dishes, and were grown under the same medium and culture conditions as above. The density of cells on each circular glass slide was required to meet the requirement that the overwhelming majority of cells were independent and individual.
In this experiment, a manual patch-clamp system HEKA EPC10 USB signal amplifier and digital conversion system (purchased from HEKA Electronics, Germany) were used for whole-cell current recording. The circular glass slides with surface-grown CHO GABAa cells (see the cell culture and requirement section above) were taken out from the culture dishes and then placed into an electrophysiological recording chamber under an inverted microscope. The recording chamber was continuously perfused with extracellular fluid (approximately 1-2 mL/min). In the experiment, the whole-cell current recording technique was employed to record chloride ion currents of GABAa channels. 1 µM GABA was used to activate chloride ion currents of GABAa channels on each cell as an initial control (the reason for using 1 µM GABA concentration was that: this concentration was an effective activation concentration for the GABAa ion channel agonist GABA on the cells used in this experiment, falling between 10% and 20%). Unless otherwise specified, the experiment was performed at conventional room temperature (about 25 °C), and only cells meeting the electrophysiological recording criteria were adopted. In the experiment, the cells were ruptured and sealed, and were clamped at -80 mV after entering a whole-cell state. 1 µM GABA acted on the cells through the drug perfusion system to induce chloride ion currents of GABAa channels; the action time was about 4 s, and the current magnitude was used as the initial control value. Subsequently, the cells were perfused and incubated with the test concentration compound for 3 min, and then a mixed solution of 1 µM GABA and the corresponding test concentration compound was applied to act on the cells to induce currents, so as to observe the enhancing effect of the test compound on the currents induced by 1 µM GABA. When the cell state stabilized, the test compound would be applied from low to high concentrations to act on the same cell. In the experiment, to avoid current reduction caused by desensitization of GABAa ion channels, the interval time for the test substance acting on the cells through the drug perfusion system was at least 180 s.
The experimental data were analyzed using data analysis software provided by HEKA Patchmaster, Microsoft Excel, and Graphpad Prism.

[4] = single concentration 0.1 µM, relative enhancement amplitude of GABAa receptor currents induced by 1 µM GABA

Sequence of GABAa receptor (α1β2γ2) (P14867 28-456): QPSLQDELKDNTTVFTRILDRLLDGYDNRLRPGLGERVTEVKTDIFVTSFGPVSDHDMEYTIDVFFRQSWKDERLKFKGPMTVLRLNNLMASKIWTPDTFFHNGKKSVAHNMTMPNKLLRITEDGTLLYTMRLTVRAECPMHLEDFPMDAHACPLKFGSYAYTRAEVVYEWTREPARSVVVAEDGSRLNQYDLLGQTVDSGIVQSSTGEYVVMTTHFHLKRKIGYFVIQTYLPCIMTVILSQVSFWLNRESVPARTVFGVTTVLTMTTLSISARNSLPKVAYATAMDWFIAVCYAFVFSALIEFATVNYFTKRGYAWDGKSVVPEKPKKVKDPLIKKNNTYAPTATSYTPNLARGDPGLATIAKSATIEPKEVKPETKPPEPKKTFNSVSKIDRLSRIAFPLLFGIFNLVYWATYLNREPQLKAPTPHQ
Sequence of GABAa receptor (α1β2γ2) (P47870 25-512 limits assumed): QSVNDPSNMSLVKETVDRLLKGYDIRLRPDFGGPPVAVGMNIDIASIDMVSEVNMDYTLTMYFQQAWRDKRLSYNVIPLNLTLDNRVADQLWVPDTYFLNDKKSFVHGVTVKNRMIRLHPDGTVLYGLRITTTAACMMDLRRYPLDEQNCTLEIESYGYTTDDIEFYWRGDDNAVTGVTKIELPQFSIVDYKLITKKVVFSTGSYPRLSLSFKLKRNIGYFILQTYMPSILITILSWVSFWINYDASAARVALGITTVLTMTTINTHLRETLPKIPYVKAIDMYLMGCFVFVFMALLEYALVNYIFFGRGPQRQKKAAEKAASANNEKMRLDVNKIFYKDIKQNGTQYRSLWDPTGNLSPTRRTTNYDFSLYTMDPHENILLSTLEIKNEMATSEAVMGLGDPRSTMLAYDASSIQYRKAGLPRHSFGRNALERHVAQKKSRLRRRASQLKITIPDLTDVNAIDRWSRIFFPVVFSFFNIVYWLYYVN
Sequence of GABAa receptor (α1β2γ2) (P18507 40-475 partner): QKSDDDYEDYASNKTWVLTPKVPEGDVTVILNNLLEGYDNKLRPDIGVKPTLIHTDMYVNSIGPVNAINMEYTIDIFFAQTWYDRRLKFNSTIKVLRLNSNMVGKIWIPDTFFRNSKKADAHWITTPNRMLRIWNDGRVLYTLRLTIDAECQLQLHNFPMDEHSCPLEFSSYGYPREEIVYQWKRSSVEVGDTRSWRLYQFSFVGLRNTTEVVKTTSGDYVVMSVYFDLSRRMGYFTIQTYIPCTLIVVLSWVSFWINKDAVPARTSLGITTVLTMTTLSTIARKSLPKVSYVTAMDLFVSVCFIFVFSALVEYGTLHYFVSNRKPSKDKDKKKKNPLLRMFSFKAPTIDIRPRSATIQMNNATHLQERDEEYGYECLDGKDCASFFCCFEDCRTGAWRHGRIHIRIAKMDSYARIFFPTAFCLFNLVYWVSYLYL

Question: Which Survival rate ([1]; dose 3 mg/kg p.o.) does the source give for “1-((2S,3S,5R,8R,9R,108,13S,14S,15R,17S)-3-Hydroxy-2,3,13,15-tetramethylhexadecahydro-1H-cyclopenta[a]phenanthren-17-yl)-2-(1H-1,2,3-triazol-1-yl)ethan-1-one [Example 8]” here?
Answer: The Survival rate was 100%.

Question: What does the source list for C[C@@H]1C[C@H](C(=O)Cn2cc(C#N)cn2)[C@@]2(C)CC[C@H]3[C@@H](CC[C@@H]4C[C@](C)(O)[C@@H](C)C[C@@H]43)[C@H]12 [Example 2, 1-(2-((2S,3S,5R,8R,9R,10S,13S,14S,15R,17S)-3-Hydroxy-2,3,13,15-tetramethylhexadecahydro-1H-cyclopenta[a]phenanthren-17-yl)-2-oxoethyl)-1H-pyrazole-4-carbonitrile]?
Answer: AUC(0-t) [2]: 16600 ng·h/mL; Cmax [2]: 1240 ng/mL; Tmax [2]: 4 h; half-life [2]: 7.38 h; EC50 ([3]; positive modulator enhancing GABAa receptor currents induced by 1 µM GABA, read-out: EC50): 22 nM

Question: With C[C@@H]1C[C@H](C(=O)Cn2ccc(C(F)(F)F)n2)[C@@]2(C)CC[C@H]3[C@@H](CC[C@@H]4C[C@](C)(O)[C@@H](C)C[C@@H]43)[C@H]12 [Example 4, 1-((2S,3S,5R,8R,9R,10S,13S,14S,15R,17S)-3-Hydroxy-2,3,13,15-tetramethylhexadecahydro-1H. cyclopenta[a]phenanthren-17-yl)-2-(3-(trifluoromethyl)-1H-pyrazol-1-yl)ethan-1-one] as the compound, how does the Agonist ratio [3, 4] read?
Answer: The Agonist ratio was 626%.

Question: What does the source list for C[C@@H]1C[C@H](C(=O)Cn2nc(C#N)cc2C#N)[C@@]2(C)CC[C@H]3[C@@H](CC[C@@H]4C[C@](C)(O)[C@@H](C)C[C@@H]43)[C@H]12 [Example 5, 1-(2-((2S,3S,5R,8R,9R,10S,13S,14S,15R,17S)-3-Hydroxy-2,3,13,15-tetramethylhexadecahydro-1H-cyclopenta[a]phenanthren-17-yl)-2-oxoethyl)-1H-pyrazole-3,5-dicarbonitrile]?
Answer: Survival rate ([1]; dose 0.3 mg/kg p.o.): 10%; Survival rate ([1]; dose 1 mg/kg p.o.): 90%; Survival rate ([1]; dose 3 mg/kg p.o.): 100%; Number of clonic seizures ([1]; dose 3 mg/kg p.o.): 0.6±0.2; Number of tonic seizures ([1]; dose 3 mg/kg p.o.): 0.0±0.0; Clonic seizure latency period ([1]; dose 3 mg/kg p.o.): 1133.7 ± 192.7 s; Tonic seizure latency period ([1]; dose 3 mg/kg p.o.): 1800.0 ± 0.0 s; protective effects against acute epileptic seizures ([1]; extremely low dose (0.3 mpk)): partial protective effects; protective effects against acute epileptic seizures ([1]; low dose (1 mpk)): significant protective effects

Question: With C[C@@H]1C[C@H](C(=O)Cn2cncn2)[C@@]2(C)CC[C@H]3[C@@H](CC[C@@H]4C[C@](C)(O)[C@@H](C)C[C@@H]43)[C@H]12 [Example 6, 1-((2S,3S,5R,8R,9R,10S,13S,14S,15R,17S)-3-Hydroxy-2,3,13,15-tetramethylhexadecahydro-1H-cyclopenta[a]phenanthren-17-yl)-2-(1H-1,2,4-triazol-1-yl)ethan-1-one] as the compound, how does the Survival rate ([1]; dose 1 mg/kg p.o.) read?
Answer: The Survival rate was 90%.

Question: And the Survival rate ([1]; dose 3 mg/kg p.o.)?
Answer: Its Survival rate is 100%.

Question: And the “Number of clonic seizures” value ([1]; dose 3 mg/kg p.o.)?
Answer: Its value is 0.8±0.2.

Question: And the “Number of tonic seizures” value ([1]; dose 3 mg/kg p.o.)?
Answer: Its value is 0.0±0.0.

Question: And the “Clonic seizure latency period” value ([1]; dose 3 mg/kg p.o.)?
Answer: Its value is 1132.4 ± 195.9 s.

Question: What about the “Tonic seizure latency period” value ([1]; dose 3 mg/kg p.o.) of the same compound?
Answer: Its value is 1800.0 ± 0.0 s.

Question: And the “protective effects against acute epileptic seizures” value ([1]; low dose (1 mpk))?
Answer: Its value is “significant protective effects”.

Question: What about the activation at 0.1 µM [3, 4] of the same compound?
Answer: Its activation at 0.1 µM is 380%.

Question: What does the source list for C[C@@H]1C[C@H](C(=O)Cn2nccn2)[C@@]2(C)CC[C@H]3[C@@H](CC[C@@H]4C[C@](C)(O)[C@@H](C)C[C@@H]43)[C@H]12 [Example 7, 1-((2S,3S,5R,8R,9R,10S,13S,14S,15R,17S)-3-Hydroxy-2,3,13,15-tetramethylhexadecahydro-1H-cyclopenta[a]phenanthren-17-yl)-2-(2H-1,2,3-triazol-2-yl)ethan-1-one]?
Answer: Survival rate ([1]; dose 3 mg/kg p.o.): 100%; activation at 0.1 µM [3, 4]: 794%

Question: With C[C@@H]1C[C@H](C(=O)Cn2cnnn2)[C@@]2(C)CC[C@H]3[C@@H](CC[C@@H]4C[C@](C)(O)[C@@H](C)C[C@@H]43)[C@H]12 [Example 10, 1-((2S,3S,5R,8R,9R,10S,13S,14S,15R,17S)-3-Hydroxy-2,3,13,15-tetramethylhexadecahydro-1H-cyclopenta[a]phenanthren-17-yl)-2-(1H-tetrazol-1-yl)ethan-1-one] as the compound, how does the Survival rate ([1]; dose 3 mg/kg p.o.) read?
Answer: Its Survival rate is 100%.

Question: Which activation at 0.1 µM [3, 4] does the source give for C[C@@H]1C[C@H](C(=O)Cn2ncnn2)[C@@]2(C)CC[C@H]3[C@@H](CC[C@@H]4C[C@H](O)[C@@H](C)C[C@@H]43)[C@H]12 [Example 17, 1-((2S,3S,5R,8R,9R,10S,13S,14S,15R,17S)-3-Hydroxy-2,13,15-trimethylhexadecahydro-1H-cyclopenta[a]phenanthren-17-yl)-2-(2H-tetrazol-2-yl)ethan-1-one] here?
Answer: Its activation at 0.1 µM is 217%.

Question: With C[C@H]1C[C@H]2[C@H](CC[C@@H]3[C@@H]2CC[C@]2(C)[C@@H](C(=O)Cn4cc(C#N)cn4)CC[C@@H]32)C[C@]1(C)O [Example 19, 1-(2-((2S,3S,5R,8R,9R,10S,13S,14S,17S)-3-Hydroxy-2,3,13-trimethylhexadecahydro-1H-cyclopenta[a]phenanthren-17-yl)-2-oxoethyl)-1H-pyrazole-4-carbonitrile] as the compound, how does the AUC(0-t) ([2]; male, ICR) read?
Answer: Its AUC(0-t) is 26700 ng·h/mL.

Question: What about the Cmax ([2]; male, ICR) of the same compound?
Answer: The Cmax was 1650 ng/mL.

Question: And the Tmax ([2]; male, ICR)?
Answer: The Tmax was 8 h.

Question: What about the half-life ([2]; male, ICR) of the same compound?
Answer: Its half-life is greater than 8 h.
